Like-named read-outs stand apart in the source and are kept apart here.
Columns and labels:
[1] = system: p53, p21, p27, Cyclin B, cdc2, CDK2, CDK4, CDK6, Cyclin D1, Cyclin D3, pRb; assay: Protein levels of cell cycle regulatory proteins; type: cell-based
Protocol: (§1) Flow cytometry analysis was performed to verify whether COMPOUND I induced apoptosis was related to cell cycle arrest. Cell cycle distribution in KRAS Mutated cell lines was quantified after treatment with different COMPOUND I concentrations. […] Therefore, it was attempted to determine whether COMPOUND I treatment also can influence the expression level of G1/S phase cell cycle regulatory proteins.

MEK, Erk1/2 and Akt = assay: Inhibition of Ras downstream pathways (summary over readouts and cell lines); type: cell-based; settings: Homo sapiens; PANC-1, MIA PaCa-2 and NCI-H1975; read-out: IC50 phosphorylation and activation of MEK, Erk1/2 and Akt
Protocol: (§2) The inhibitory effects of compounds COMPOUND I was tested on Ras-associated signal transduction pathways in three different human cell lines: the pancreatic cell-lines PANC-1 (K-Ras G12D mutant), MIA PaCa-2 (K-Ras G12C mutant), and the non-small cell lung cancer cell-line NCI-H1975 (KRas WT). FIG. 8 illustrate the inhibitory effects of COMPOUND I on phosphorylation and activation of MEK, Erk1/2 and Akt in those three cell lines. […] In contrast, the IC50s of compound COMPOUND I on the phosphorylation and activation of MEK and Erk1/2 were approximately 2 μM in PANC-1 and MIA PaCa-2 and 3 μM in NCI-H1975; and, of Akt, were approximately 5 μM in PANC-1 and MIA PaCa-2 and 5 μM in NCIH1975 (FIG. 8).

KRAS Mutated cell lines = assay: Flow cytometry cell cycle distribution; type: cell-based
Protocol: as §1

Erk1/2 = assay: Inhibition of Ras downstream pathways: Erk1/2 phosphorylation; type: cell-based; settings: Homo sapiens, read-out: IC50 phosphorylation and activation of Erk1/2
Protocol: as §2

Akt = assay: Inhibition of Ras downstream pathways: Akt phosphorylation; type: cell-based; settings: Homo sapiens, read-out: IC50 phosphorylation and activation of Akt
Protocol: as §2

[2] = system: normal monkey Kidney epithelial cells; assay: MTT cytotoxicity on normal cells; type: cell-based; settings: normal monkey Kidney epithelial cells versus cancer cell lines
Protocol: (§3) Several cell lines including human breast carcinoma (MCF7), colon adenocarcinoma (HT-29), Liver adenocarcinoma (HEP G2), Lung adenocarcinoma (A549) were treated with a range of COMPOUND I for 48 hours and the percentage of cell viability was determined by MTT assay. The average total viable cells were precisely calculated and anti-proliferative effects were determined. […] The drug were also tested on normal monkey Kidney epithelial cells.

Ras-GTP complex = assay: Ras pull-down assay; type: cell-based, human; settings: PANC-1, MIA PaCa-2 and NCIH1975; read-out: IC50 Ras-GTP complex formation
Protocol: As a follow up to the downstream assays, the ability of COMPOUND I was also measured to inhibit Ras-GTP complex formation in the three tested cell-lines (PANC-1, MIA PaCa-2 and NCIH1975) using a Ras pull-down assay. […] These values correlate well with the IC50 values obtained for the inhibition of MEK, Erk1/2 and Akt phosphorylation presented in FIGS. 2 and 3.

[3] = system: MCF7, HT-29, HEP G2, A549; assay: Cell viability (MTT assay) on human adenocarcinoma cell lines; type: cell-based; settings: 48 hours, 250 to 0.97 nmol/L
Protocol: as §3

[4] = system: Bcl-2, Bax, caspase-9, caspase-3, PARP; assay: Western blotting of apoptosis-related proteins; type: cell-based; settings: western blot
Protocol: (§4) To confirm that COMPOUND I induced cell apoptosis, DNA fragmentation assay, was performed. […] Furthermore, the expression levels of proteins related to apoptosis and cell cycle progression by western blotting were examined. Cells were treated with COMPOUND I at different concentrations and total proteins were isolated. Beta-Actin was used as an internal control. […] The effect of drugs on the cleavage of procaspase 9 and procaspase 3 were examined. […] Caspase-3 is a key regulator of mitochondrial dependent and independent apoptotic pathways and activation of caspase-3 leads to cleavage of several substrates including PARP.

apoptosis = assay: DNA fragmentation assay / apoptosis quantitation; type: cell-based
Protocol: as §4

MEK = assay: Inhibition of Ras downstream pathways: MEK phosphorylation; type: cell-based; settings: Homo sapiens, read-out: IC50 phosphorylation and activation of MEK
Protocol: as §2

Control cell lines = assay: Cell-cycle regulation and apoptosis in control cell lines; type: cell-based; settings: control cell lines compared with KRAS Mutated cell lines
Akt, mTOR, ERK = assay: Akt/mTOR/ERK pathway activation; type: cell-based
Description: In order to better understand the molecular basis of COMPOUND I induced cell cycle arrest and apoptosis, the expression of Akt and mTOR was investigated with various concentrations of COMPOUND I. Akt/mTOR is an important cell survival pathway and activated Akt inhibits apoptosis leading to cell survival. […] Additionally, it was examined whether COMPOUND I effect involved ERK signaling pathway and found the decreased activation of ERK.

[5] = system: PANC-1, MIA PaCa-2, NCIH1975, A549 (K-Ras G12S mutant), NCI-H1299 (N-Ras Q61K mutant); assay: Cellular proliferation of Ras wild type/mutant cell lines; type: cell-based; settings: Homo sapiens; range over all tested cell lines
Protocol: The inhibition of compounds COMPOUND I on the cellular proliferation of […] cell lines were measured: The three cell lines in the signaling studies (PANC-1, MIA PaCa-2, NCIH1975), and the non-small cell lung cancer lines A549 (K-Ras G12S mutant) and NCI-H1299 (N-Ras Q61K mutant). FIG. 7 and IC50 values measured in these studies. […] Consistent with the notion that these compounds are pan-Ras superfamily inhibitors, it is reasonable to speculate that they can inhibit pathways downstream of several members of the Rassuperfamily.

## COc1cc(C(C)=O)ccc1C(=O)COP(=O)(O)OP(=O)(O)OP(=O)(O)OCC1OC(n2cnc3c(=O)[nH]c(Nc4ccc(O)cc4)nc32)C(O)C1O (centres unmarked) [COMPOUND I]
[1]; KRAS Mutated cell lines
  expression levels of p21, p27 and p53: Greater expression levels
[1]; dose-dependent
  expression levels of CDK4, CDK6, Cyclin D1, Cyclin D3, pRb: decreased significantly
  expression levels of Cyclin B, cdc2, CDK2: decreased significantly
MEK, Erk1/2 and Akt
  IC50: 1 to 3 µM
KRAS Mutated cell lines
  cells showing G1/S phase arrest: 23.98%
  number of cells in the G2/M phase: 76.89%
Erk1/2; MIA PaCa-2 (K-Ras G12C mutant)
  IC50: ~2 µM
Erk1/2; NCI-H1975 (KRas WT)
  IC50: ~3 µM
Erk1/2; PANC-1 (K-Ras G12D mutant)
  IC50: ~2 µM
Akt; NCI-H1975, NCIH1975 (KRas WT)
  IC50: ~5 µM
Akt; MIA PaCa-2 (K-Ras G12C mutant)
  IC50: ~5 µM
Akt; PANC-1 (K-Ras G12D mutant)
  IC50: ~5 µM
[2]
  sensitivity to induced cytotoxicity: less sensitive
Ras-GTP complex
  IC50: 2 to 3 µM
[3]
  proliferation / cell viability: inhibited the proliferation of all the cell lines in a dose-dependent manner
[4]
  cleavage of PARP into 116 kDa and 84 kDa fragment: induced the cleavage of PARP
  cleavages of procaspase 9 and procaspase 3: induced in a dose-dependent manner
[4]; dose dependent
  expression of Bcl-2: down regulated
  expression of proapoptotic proteins Bax, caspase-9 and caspase-3: induced expression
apoptosis; 48 hours, all concentrations tested
  DNA fragmentation (ladder pattern in agarose gels): lead to DNA fragmentation
apoptosis; treated cells
  apoptosis (quantitative analysis): significant increase of apoptosis
MEK; MIA PaCa-2 (K-Ras G12C mutant)
  IC50: ~2 µM
MEK; NCI-H1975 (KRas WT)
  IC50: ~3 µM
MEK; PANC-1 (K-Ras G12D mutant)
  IC50: ~2 µM
Control cell lines
  changes in cell-cycle regulation and apoptosis: better protected
Akt, mTOR, ERK
  total Akt and mTOR levels: remained constant
Akt, mTOR, ERK; Serine 473 and Serine 2448, concentration-dependent
  phosphorylation of Akt and mTOR: suppressed
Akt, mTOR, ERK; Threonine 202 and Tyrosine 204
  phosphorylation of ERK: suppressed
[5]
  IC50: 0.45 to 1.2 µM
